Read-outs that look alike come from different tables or passages of the source.
Legend:
[1] = tested on: p52 (NF-kB2) nuclear translocation in HeLa cells; assay: p52 nuclear translocation assay (non-classical NF-kB signaling), high content imaging; format: cell-based; settings: 100 ng/mL anti-lymphotoxin beta receptor antibody for 5 hours, read-out: p52 HeLa Transloc Assay (IC50)
Description: (2) A second set of cell assay are used to define the selectivity of NIK inhibitors toward inhibition of classical vs. non-classical NF-kB signaling and rely on quantification of the nuclear translocation of p52 (NF-kB2) and REL-A (p65) using high content cellular imaging. For the p52 (non-classical NF-kB signaling) nuclear translocation assay, HeLa cells are treated with different concentrations of compounds (0.2% DMSO final) in medium containing 10% fetal bovine serum and then stimulated with 100 ng/mL, of an anti-lymphotoxin beta receptor antibody (R&D Systems) for 5 hours. In the REL-A nuclear translocation assay, HeLa cells are incubated with compounds (0.2% DMSO final) for 4.5 hours in medium containing 10% fetal bovine serum before stimulating them with 10 ng/mL tumor necrosis factor (TNF)-α (R&D Systems) for 30 minutes. Cells are fixed with 4% paraformaldehyde, permeabilized by adding 0.1% Triton X-100 in phosphate buffered saline, and then are incubated with either 2 ug/mL anti-p52 antibody (Millipore) or 400 ng/mL anti-REL-A (p65) antibody (Santa Cruz Biotechnology). Finally, the cells are incubated with an Alexa488-labeled secondary antibody (Invitrogen) and DRAQ5 DNA stain (Biostatus). Imaging is carried out using an Opera reader (Perkin Elmer) and data are analyzed with the aid of Acapella software (Perkin Elmer). The p52 or REL-A translocation into the nucleus is quantified by the ratio of the nuclear to cytoplasmic signal intensity. […] The compounds in listed in Table 1 have the corresponding inhibitory value (IC50 in micromolar) for NIK p52 Translocation Assay as set forth in Table 2.

[2] = tested on: REL-A (p65) nuclear translocation in HeLa cells; assay: REL-A nuclear translocation assay (classical NF-kB signaling), high content imaging; format: cell-based; settings: compounds 4.5 hours, then 10 ng/mL TNF-α for 30 minutes, read-out: REL-A HeLa Transloc Assay (IC50)
In short: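 HeLa cells in 10% FBS medium preincubated with compounds (0.2% DMSO final) for 4.5 hours, then stimulated with 10 ng/mL TNF-α for 30 minutes. Fixed cells stained with 400 ng/mL anti-REL-A antibody, Alexa488 secondary and DRAQ5; translocation quantified by imaging as nuclear to cytoplasmic signal ratio.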

[3] = molecular target: nuclear factor-kappa B (NF-kB)-inducing kinase (NIK) (Homo sapiens (Human), UniProt Q99558); assay: NIK Enzyme Inhibition Assay (Transcreener ADP fluorescence polarization); format: biochemical; settings: read-out: NIK ADP-FP (Ki uM)
In short: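 Fluorescence-polarization ADP detection (tracer displacement, 633 nm excitation) read after EDTA/Brij quench. Reaction: 0.2-1 nM insect-cell-derived NIK, 10 uM ATP, HEPES pH 7.2 with MgCl2 and DTT, 1% DMSO, 1-3.5 h with compounds.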

[4] = purified NIK 0.2-1 nM, 10 uM ATP, Morrison's quadratic equation

Chain of nuclear factor-kappa B (NF-kB)-inducing kinase (NIK) (Q99558 whole entry): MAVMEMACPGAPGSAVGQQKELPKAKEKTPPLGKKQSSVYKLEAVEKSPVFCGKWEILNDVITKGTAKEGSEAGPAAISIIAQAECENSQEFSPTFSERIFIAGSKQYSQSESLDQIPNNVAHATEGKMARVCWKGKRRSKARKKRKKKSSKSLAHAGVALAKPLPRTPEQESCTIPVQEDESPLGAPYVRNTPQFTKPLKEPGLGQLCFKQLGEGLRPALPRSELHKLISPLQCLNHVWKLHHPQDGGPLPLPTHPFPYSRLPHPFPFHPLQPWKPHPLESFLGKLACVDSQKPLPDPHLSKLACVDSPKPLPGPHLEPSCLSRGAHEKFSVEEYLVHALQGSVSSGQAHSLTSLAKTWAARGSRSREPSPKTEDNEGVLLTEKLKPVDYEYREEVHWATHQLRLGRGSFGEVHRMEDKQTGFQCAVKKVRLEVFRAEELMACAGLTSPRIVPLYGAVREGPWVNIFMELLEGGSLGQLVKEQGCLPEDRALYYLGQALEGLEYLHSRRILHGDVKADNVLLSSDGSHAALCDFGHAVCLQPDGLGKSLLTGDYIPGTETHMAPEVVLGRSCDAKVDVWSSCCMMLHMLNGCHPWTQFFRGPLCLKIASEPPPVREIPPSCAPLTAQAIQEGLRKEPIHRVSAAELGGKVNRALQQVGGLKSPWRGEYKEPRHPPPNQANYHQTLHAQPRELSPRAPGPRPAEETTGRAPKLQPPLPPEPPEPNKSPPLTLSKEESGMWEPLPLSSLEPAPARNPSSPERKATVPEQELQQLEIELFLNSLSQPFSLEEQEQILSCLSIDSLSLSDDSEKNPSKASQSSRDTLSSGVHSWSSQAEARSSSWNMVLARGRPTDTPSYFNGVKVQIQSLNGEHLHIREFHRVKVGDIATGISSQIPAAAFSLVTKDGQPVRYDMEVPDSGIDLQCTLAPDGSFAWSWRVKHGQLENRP

IC50 ([2]; Homo sapiens, HeLa)	Ki [3, 4]	SMILES	IC50 ([1]; Homo sapiens, HeLa, 5 h)	Ki [3]	IC50 ([1]; Homo sapiens)	IC50 ([2]; Homo sapiens)	IC50 [1]	IC50 [2]
> 20000 nM	0.0022 µM	CNC(=O)c1c(C(N)=O)nc2n1C1CC(C1)c1cc(F)c(C#CC(C)(C)O)cc1-2 (racemic)	358 nM					
20000 nM	0.008 µM	CC(O)(C#Cc1cc2c(cc1F)OCCn1cc(C(N)=O)nc1-2)CF (racemic) [Example 75]	3800 nM					
> 20000 nM	0.026 µM	CC(C)(O)C#Cc1ccc2c(c1)-c1nc(C(N)=O)c(C(F)(F)F)n1C1CC2C1 (racemic) [Example 206]	4400 nM					
20000 nM	0.0003 µM	Cc1cc([C@](C)(O)C#Cc2cc3c(cc2F)OCCn2cc(C(N)=O)nc2-3)no1 [Example 6, 8-fluoro-9-[(R)-3-hydroxy-3-(5-methyl-isoxazol-3-yl)-but-1-ynyl]-4,5-dihydro-6-oxa-1,3a-diaza-benzo[e]azulene-2-car-boxylic acid amide]	135 nM					
> 20000 nM	0.0024 µM	Cc1cc([C@](C)(O)C#Cc2cc3c(cc2F)C2CC(C2)n2cc(C(N)=O)nc2-3)on1	675 nM					
> 20000 nM	0.00059 µM	Cc1cc([C@](C)(O)C#Cc2ccc3c(c2)-c2nc(C(N)=O)c(-c4cnn(CC(C)(C)O)c4)n2C2CC3C2)no1	934 nM					
> 20000 nM	0.0012 µM	CC(C)NC(=O)c1c(C(N)=O)nc2n1CCOc1ccc(C#C[C@]3(O)CCN(C)C3=O)cc1-2	316 nM					
20000 nM	0.002 µM	Cn1nccc1Cn1c(C(N)=O)nc2c1C1CC(C1)c1cc(F)c(C#CC(C)(C)O)cc1-2 [Example 391]	36.8 nM					
> 20000 nM	0.0021 µM	CNC(=O)c1c(C(N)=O)nc2n1C1CC(C1)c1ccc(C#C[C@@](C)(O)c3ccccn3)cc1-2	830 nM					
17500 nM	0.0021 µM	CNC(=O)c1c(C(N)=O)nc2n1C1CC(C1)c1ccc(C#C[C@@](C)(O)c3noc(C)n3)cc1-2	3800 nM					
20000 nM	0.00016 µM	Cn1c(C(N)=O)nc2c1C1CC(C1)c1cc(F)c(C#C[C@@](C)(O)c3ncccn3)cc1-2 [Example 283, (R)-8-fluoro-9-(3-hydroxy-3-(pyrimidin-2-yl)but-1-yn-1-yl)-3-methyl-3,4,5,6-tetrahydro-4,6-methanobenzo[3,4]cyclo-hepta[1,2-d]imidazole-2-carboxamide]	881 nM					
20000 nM	0.0004 µM	CC(C)(O)C#Cc1cc2c(cc1F)OCCn1c-2nc(C(N)=O)c1C(=O)NCC#N	77 nM					
> 20000 nM	0.0009 µM	NC(=O)c1cn2c(n1)-c1cc(C#CC3(O)CCc4cccnc43)c(F)cc1OCC2 (racemic)	1500 nM					
20000 nM	0.0011 µM	Cc1cc([C@](C)(O)C#Cc2ccc3c(c2)-c2nc(C(N)=O)c(C(=O)NC4CCOCC4)n2C2CC3C2)no1 (racemic)	284 nM					
> 20000 nM	0.0002 µM	Cc1cc([C@](C)(O)C#Cc2ccc3c(c2)-c2nc(C(N)=O)c(Cc4ccnn4C)n2C2CC3C2)no1	1700 nM					
		CC(C)(O)c1c(C(N)=O)nc2n1C1CC(C1)c1cc(F)c(C#CC3(O)CCCC3)cc1-2 [Example 324, 9-fluoro-10-[2-(1-hydroxycyclopentyl)ethy-nyl]-3-(1-hydroxy-1-methyl-ethyl)-5,6,7,12-tetrahydro-5,7-methanobenzo[c]imi-dazo[1,2-a]azepine-2-carboxamide]		0.0089 µM			1100 nM	> 20000 nM
20000 nM	0.001 µM	Cc1nc([C@](C)(O)C#Cc2cc3c(cc2F)OCCc2sc(C(N)=O)nc2-3)no1	171 nM					
> 20000 nM	0.0043 µM	CNC(=O)c1c(C(N)=O)nc2n1CCOc1ccc(C#CC(C)(O)c3ccccn3)cc1-2 (stereo not drawn)	1400 nM					
> 20000 nM	0.0013 µM	Cc1cc([C@](C)(O)C#Cc2cc3c(cc2F)C2CC(C2)n2c-3nc(C(N)=O)c2C)no1	385 nM					
> 20000 nM	0.0072 µM	Cc1nc([C@](C)(O)C#Cc2cc3c(cc2F)C2CC(C2)n2c-3nc(C(N)=O)c2C(F)(F)F)no1 (racemic)	2300 nM					
> 20000 nM	0.0018 µM	Cc1nc([C@](C)(O)C#Cc2ccc3c(c2)-c2nc(C(N)=O)n(C)c2C2CC3C2)no1 [Example 426]	406 nM					
> 20000 nM	0.0077 µM	CC(C)(O)C#Cc1cc2c(cc1F)C1CC(C1)n1c-2nc(C(N)=O)c1C1CN(C(=O)OC(C)(C)C)C1 (racemic)	1800 nM					
> 20000 nM	0.0005 µM	Cc1nc([C@](C)(O)C#Cc2cc3c(cc2F)C2CC(C2)c2c-3nc(C(N)=O)n2C)no1	835 nM					
> 20000 nM	0.00087 µM	Cc1nc2ccccc2n1Cc1c(C(N)=O)nc2n1C1CC(C1)c1ccc(C#C[C@]3(O)CCN(C)C3=O)cc1-2	2900 nM					
> 20000 nM	0.0072 µM	C[C@@](O)(C#Cc1ccc2c(c1)-c1nc(C(N)=O)c(-c3nc(C4CC4)n[nH]3)n1CCO2)c1ncccn1	2100 nM					
> 20000 nM	0.0047 µM	C[C@@](O)(C#Cc1cc2c(cc1F)OCCn1c-2nc(C(N)=O)c1-c1nc(C2CC2)n[nH]1)c1ncccn1	1600 nM					
20000 nM	0.003 µM	CC(O)(C#Cc1cc2c(cc1F)OCCc1sc(C(N)=O)nc1-2)CO (stereo not drawn)	1100 nM					
> 20000 nM	0.0004 µM	CC(C)(O)C#Cc1cc2c(cc1F)OCCn1c-2nc(C(N)=O)c1-c1nc(-c2cccnc2)n[nH]1 [Example 172]	1200 nM					

SMILES	IC50 ([2]; Homo sapiens, HeLa)	Ki [3, 4]	IC50 ([1]; Homo sapiens, HeLa, 5 h)	Ki [3]	IC50 ([1]; Homo sapiens)	IC50 ([2]; Homo sapiens)	IC50 [1]	IC50 [2]
Cc1cc([C@](C)(O)C#Cc2ccc3c(c2)-c2nc(C(N)=O)c(C(F)(F)F)n2C2CC3C2)no1	15100 nM		511 nM	0.0005 µM				
CC(C)(O)C#Cc1cc2c(cc1F)C1CC(C1)n1c-2nc(C(N)=O)c1C1(O)COC1 [Example 339, 9-fluoro-10-(3-hydroxy-3-methyl-but-1-ynyl)-3-(3-hydroxyoxetan-3-yl)-5,6,7,12-tetrahydro-5,7-methanobenzo[c]imi-dazo[1,2-a]azepine-2-carboxamide]		0.007 µM			2600 nM	> 20000 nM		
CN1CC[C@@](O)(C#Cc2ccc3c(c2)-c2nc(C(N)=O)cn2C2CC3C2)C1=O	20000 nM		1500 nM	0.0012 µM				
Cc1cc([C@](C)(O)C#Cc2ccc3c(c2)-c2nc(C(N)=O)cn2CCO3)no1 [Example 8, 9-[(R)-3-Hydroxy-3-(5-methyl-isoxazol-3-yl)-but-1-ynyl]-4,5-dihydro-6-oxa-1,3a-diaza-benzo[e]azulene-2-carboxylic acid amide]	20000 nM	0.001 µM	672 nM					
CNC(=O)c1c(C(N)=O)nc2n1CCOc1cc(F)c(C#CC(C)(O)c3ccccn3)cc1-2 (stereo not drawn) [Example 180, 9-fluoro-10-[3-hydroxy-3-(2-pyridyl)but-1-ynyl]-N3-methyl-5,6-dihydroimi-dazo[1,2-d][1,4]benzoxazepine-2,3-dicarboxamide]	> 20000 nM	0.0012 µM	870 nM					

Reference: US9034866B2 (Genentech, Inc., priority 2012, dated 2015)
